{"source": "patent US11045435B2", "about": "“Methods for treating ocular diseases” (NATUREWISE BIOTECH & MEDICALS CORPORATION, priority 2016, dated 2021)", "key": {"[1]": {"test_system": "experimentally-induced ocular inflammation", "assay": "Vascular permeability in experimentally-induced ocular inflammation", "type": "in vivo", "details": "earlier experiments of the applicant's laboratory"}, "IL-1-induced uveitis": {"test_system": "IL-1-induced uveitis", "assay": "IL-1-induced uveitis in rat eyes", "type": "in vivo", "details": "earlier experiments of the applicant's laboratory"}}}
{"smiles": "COc1ccc2ccc(=O)oc2c1CC=C(C)C", "note": "[Osthole]", "values": [{"measurement": "vascular permeability", "setting": "[1]", "value": "showed efficacy to reduce vascular permeability"}, {"measurement": "IL-1-induced uveitis", "setting": "IL-1-induced uveitis", "value": "inhibit IL-1-induced uveitis"}]}
